Data published in patent publication US8399509B2, “Glucopyranoside derivatives” (Merck Patent Gesellschaft mit beschrankter Haftung, priority 2008, dated 2013).

How the values were obtained:
[1] = molecular target: T1, SGLT1 (Homo sapiens, UniProt P13866); assay: 14C-AMG uptake in BHK cells transfected with SGLT1; assay type: cell-based; conditions: 50 μM AMG, 37° C., 90 min
T1 construct: expressed in transfected cells
T1 sequence (P13866 1-664): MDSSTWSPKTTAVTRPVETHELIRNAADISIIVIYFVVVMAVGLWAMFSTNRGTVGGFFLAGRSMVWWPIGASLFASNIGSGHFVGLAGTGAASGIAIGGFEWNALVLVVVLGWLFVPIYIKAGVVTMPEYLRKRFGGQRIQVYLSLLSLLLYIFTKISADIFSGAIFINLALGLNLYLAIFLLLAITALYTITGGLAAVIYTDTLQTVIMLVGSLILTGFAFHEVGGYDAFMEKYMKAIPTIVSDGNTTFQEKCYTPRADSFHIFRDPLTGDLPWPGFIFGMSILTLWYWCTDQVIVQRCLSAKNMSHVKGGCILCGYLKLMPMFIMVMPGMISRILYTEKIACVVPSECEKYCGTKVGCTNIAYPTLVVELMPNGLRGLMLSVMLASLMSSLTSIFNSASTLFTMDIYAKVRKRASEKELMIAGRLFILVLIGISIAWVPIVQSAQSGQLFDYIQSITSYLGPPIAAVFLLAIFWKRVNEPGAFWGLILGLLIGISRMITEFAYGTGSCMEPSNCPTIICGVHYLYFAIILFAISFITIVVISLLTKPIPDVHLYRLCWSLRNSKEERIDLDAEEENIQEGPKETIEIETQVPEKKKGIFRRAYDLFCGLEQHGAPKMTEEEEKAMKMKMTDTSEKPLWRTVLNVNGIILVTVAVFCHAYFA
From the text: (§1) The compounds can be tested for their SGLT inhibition properties by means of BHK cells expressing SGLT1 and SGLT2. The production of the cells and the testing can be carried out as described below.
Construction and Expression of SGLT1 in BHK Cells
To construct the SGLT1 expression vector (KL225), the SLC5A1 gene (homologous to NM_000343) was amplified from a cDNA library using standard PCR technology and cloned over NheI/XhoI sites into the pcDNA3.1 expression vector (Invitrogen) containing neomycin as a selection marker. In this vector, transcription uses the enhancer/promoter of human cytomegalovirus.
(§2) The final vector KL225 together with an additional vector containing a dihydrofolate reductase gene as a selection marker was introduced into cells. Transfection into BHK21 cells (ATCC CCL-10), cultivated in DMEM medium (GIBCO/BRL), supplemented with 10% foetal calf serum (FCS) and 20 mM glutamine, was carried out using calcium phosphate transfections according to Graham, F. L. and van der Ebb, A. J. (1973), Virology 52: 456 with 5-20 μg of uncut plasmids for 10^7 cells. Stable transfectants were selected in medium containing 1 mg/ml of G418 (GIBCO/BRL) and 20-5000 nM methotrexate as final concentration, where only cells which expressed the neomycin gene and overexpressed the dhfr gene were able to grow. After growth for 2-3 weeks, the cells were cloned (0.5 cells/well) and the clones were investigated for SGLT expression in radioactivity uptake tests.
(§3) Method of SGLT1/2 Activity Measurement
(§4) The uptake of ^14C-α-methyl-D-glucopyranoside (AMG) in, for example, Xenopus oocytes injected with the corresponding cRNA has been described in principle (for example Wen-Sen Lee et al. (1994), J. Biol. Chem. 269, 12032-12039; Guofeng You et al. (1995), J. Biol. Chem. 270, 29365-29371).
(§5) A 96-well cell-based assay was developed and adapted to HTS requirements:
(§6) BHK cells (transfected with SGLT1 or SGLT2) were seeded into 96-well microtitre plates (Cultureplates, Perkin Elmer). After at least 24 h, medium was removed, and the cell layer was washed with assay buffer (140 mM NaCl, 2 mM KCl, 1 mM CaCl2, 1 mM MgCl2, 10 mM HEPES, 5 mM Tris, adjusted to pH 7.4 using 1 M KOH). After addition of 40 μl of assay buffer, 50 μl of AMG (50 μM for SGLT1 and 2 mM for SGLT2) in the presence or absence of compounds, the cells were incubated in a total volume of 100 μl at 37° C. for 90 min. Supernatant was removed by suction and discarded. Cells were washed and lysed by addition of 50 μl of water. After 10 min at room temperature, 200 μl of Micrsoscint 40 (Perkin Elmer) were added. The radioactivity was counted in a Topcount microplate scintillation counter (Perkin Elmer). The non-specific uptake was determined in sodium-free assay buffer (266 mM sucrose, 2 mM KCl, 1 mM CaCl2, 1 mM MgCl2, 10 mM HEPES, 5 mM Tris, adjusted to pH 7.4 using 1 M KOH).

[2] = molecular target: T2, SGLT2 (Homo sapiens, UniProt P31639); assay: 14C-AMG uptake in BHK cells transfected with SGLT2; assay type: cell-based; conditions: 2 mM AMG, 37° C., 90 min
T2 construct: expressed in transfected cells
T2 sequence (P31639 1-672): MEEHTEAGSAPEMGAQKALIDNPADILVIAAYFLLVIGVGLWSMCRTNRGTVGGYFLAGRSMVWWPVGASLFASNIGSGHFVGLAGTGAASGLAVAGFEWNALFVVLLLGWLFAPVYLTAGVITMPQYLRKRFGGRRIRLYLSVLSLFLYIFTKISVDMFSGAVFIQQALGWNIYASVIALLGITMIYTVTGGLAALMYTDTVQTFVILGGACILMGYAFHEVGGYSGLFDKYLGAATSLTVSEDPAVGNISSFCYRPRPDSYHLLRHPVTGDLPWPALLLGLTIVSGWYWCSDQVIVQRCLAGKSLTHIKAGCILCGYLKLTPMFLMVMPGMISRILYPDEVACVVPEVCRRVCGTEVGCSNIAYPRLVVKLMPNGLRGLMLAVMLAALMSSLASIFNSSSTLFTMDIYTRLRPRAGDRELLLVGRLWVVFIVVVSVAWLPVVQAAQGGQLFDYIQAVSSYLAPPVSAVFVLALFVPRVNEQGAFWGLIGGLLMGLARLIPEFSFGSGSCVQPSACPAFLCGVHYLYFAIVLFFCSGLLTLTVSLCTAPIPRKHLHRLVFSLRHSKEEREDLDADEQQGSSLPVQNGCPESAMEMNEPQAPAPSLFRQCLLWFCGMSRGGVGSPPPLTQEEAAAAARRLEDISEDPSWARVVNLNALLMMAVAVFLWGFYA
From the text: as §1
Construction and Expression of SGLT2 in BHK Cells
To construct the SGLT2 expression vector (KL224), the SLC5A2 gene (homologous to NM_003041) was amplified from a cDNA library using standard PCR technology and cloned over NheI/XhoI sites into PCI-neo expression vector (Promega) containing neomycin as a selection marker. In this vector, transcription uses the enhancer/promoter of human cytomegalovirus and the SV40 polyadenylation signal.
as §2, with “KL224” for “KL225”
as §3, §4, §5, §6

Molecule | IC50 [1] [µM] | IC50 [2] [µM]
COc1ccc(C2CCc3ccc([C@@H]4O[C@H](CO)[C@@H](O)[C@H](O)[C@H]4O)cc32)cc1 (stereo partly drawn) [Compound A1, 6-(β-D-glucopyranos-1-yl)-1-(4-methoxyphenyl)indane] | > 10 | 0.01 to 1
COc1ccc([C@@H]2CCc3ccc([C@@H]4O[C@H](CO)[C@@H](O)[C@H](O)[C@H]4O)cc32)cc1 [Compound A2, 6-(β-D-glucopyranos-1-yl)-1S-(4-methoxyphenyl)indane] | > 10 | 0.01 to 1
CCOc1ccc(C2CCc3ccc([C@@H]4O[C@H](CO)[C@@H](O)[C@H](O)[C@H]4O)cc32)cc1 (stereo partly drawn) [Compound A4, 6-(β-D-Glucopyranos-1-yl)-1-(4-ethoxyphenyl)indane] | > 10 | 0.01 to 1
COc1ccc(C2CCCc3ccc([C@@H]4O[C@H](CO)[C@@H](O)[C@H](O)[C@H]4O)cc32)cc1 (stereo partly drawn) [Compound A5, 7-(β-D-Glucopyranos-1-yl)-1-(4-methoxyphenyl)-1,2,3,4-tetrahydro-naphthalene] | > 10 | 0.01 to 1
COc1ccc(C2=CCCc3ccc([C@]4(OC)O[C@H](CO)[C@@H](O)[C@H](O)[C@H]4O)cc32)cc1 [Compound A6, 7-(1-Methoxy-D-glucopyranos-1-yl)-1-(4-methoxyphenyl)-3,4-dihydronaphthalene] | > 10 | > 10
COc1ccc(C2COc3ccc([C@@H]4O[C@H](CO)[C@@H](O)[C@H](O)[C@H]4O)cc32)cc1 (stereo partly drawn) [Compound A9, 5-(β-D-Glucopyranos-1-yl)-3-(4-methoxyphenyl)-2,3-dihydrobenzofuran] | > 10 | 0.01 to 1
CCOc1ccc(-n2ccc3ccc([C@@H]4O[C@H](CO)[C@@H](O)[C@H](O)[C@H]4O)cc32)cc1 [Compound A12, 6-(β-D-Glucopyranos-1-yl)-1-(4-ethoxyphenyl)indole] | > 10 | > 10
COc1ccc([C@@H]2COc3ccc([C@@H]4O[C@H](CO)[C@@H](O)[C@H](O)[C@H]4O)cc32)cc1 [Compound A13] | > 10 | 0.01 to 1

The next lines start with the values.

IC50 [1] [µM] | IC50 [2] [µM] | Molecule
> 10 | 1 to 10 | 5-(β-D-Glucopyranos-1-yl)-3-(4-methoxyphenyl)benzofuran [Compound A7]
> 10 | > 10 | 5-(β-D-glucopyranos-1-yl)-2-(4-methoxyphenyl)benzofuran [Compound A8]
> 10 | > 10 | 6-(β-D-glucopyranos-1-yl)-1R-(4-methoxyphenyl)indane [Compound A3]
> 10 | > 10 | 6-(β-D-glucopyranos-1-yl)-3R-(4-methoxyphenyl)indane [Compound A14]
